Measurements reported in patent publication US20150202203A1, “Method of Treating Gastrointestinal Stromal Tumors” (Novartis AG, priority 2012, published 2015).
Entries after “also recorded” stand apart in the source; their conditions may differ. Like-named read-outs stand apart in the source and are kept apart here.

How the values were obtained:
GIST430 cells = details: Imatinib combined with Dovitinib, 72 hrs
Experimental: GIST-T1 was obtained from Kochi Medical School, Kochi, Japan.
GIST882 cells were cultured in RPMI-1640 (ATCC Catalog #30-2001) supplemented with 15% FBS and 1% L-glutamine, GIST48 cells in F10 (Gibco/Invitrogen Catalog #11550-043) supplemented with 15% FBS, 0.5% Mito+ (BD Bioscience Catalog #355006), 1% BPE (BD Bioscience/Fisher Catalog#354123) and 1% L-glutamine, GIST430 cells in IMEM (Gib-co/Invitrogen Catalog #12440-053) supplemented with 15% FBS and 1% L-glutamine, and GIST-T1 cells in DMEM (Gibco/Invitrogen Catalog #11965) supplemented with 10% FBS.
10,000 cells suspended in 80 μl media were seeded into each well of a 96-well cell-culture plate and grown for 24 hours prior to treatment. 10 μl of 60 μg/mL heparin (Sigma Catalog # H3149) was added to each well, and then 10 μl of 50 μg/mL FGF2 (R&D Catalog #233-FB/CF) or media was added to each well of the plates. 10 μl of each of the compound dilutions described above and 10 μl of media were added to wells to a […] such that all pair-wise combinations as well as the single agents were represented.

GIST-T1 cells = test: CellTiter-Glo cell viability assay, GIST-T1
Source text: (§1) GIST882 was established from an untreated human GIST with a homozygous missense mutation in KIT exon 13, encoding a K642E mutant KIT protein (Tuveson D A, Willis N A, et al. Oncogene 2001; 20: 5054-5058). […] GIST48 has a primary homozygous exon 11 missense mutation (V560D) and a secondary heterozygous exon 17 missense mutation (D820A). GIST430 has a primary heterozygous exon 11 in-frame deletion and a secondary heterozygous exon 13 missense mutation (V654A). […] It was established from a metastatic human GIST with a heterozygous deletion of 57 bases in exon 11 of KIT (Taguchi T, Sonobe H, Toyonaga S, et al. Lab Invest 2002; 82: 663-665).
(§2) 10,000 cells suspended in 80 μl media were seeded into each well of a 96-well cell-culture plate and grown for 24 hours prior to treatment. 10 μl of 60 μg/mL heparin (Sigma Catalog # H3149) was added to each well, and then 10 μl of 50 μg/mL FGF2 (R&D Catalog #233-FB/CF) or media was added to each well of the plates. 10 μl of each of the compound dilutions described above and 10 μl of media were added to wells to a final volume 120 μl such that all pair-wise combinations as well as the single agents were represented. Cells were incubated for 72 hrs at 37° C. in a 5% CO2 incubator following compound addition. Cell proliferation was measured using the CellTiter-Glo luminescent cell viability assay (Promega catalog # G755B) and Victor4 plate reader (Perkin Elmer).

KIT = KIT inhibition by Western blot in GIST cell lines; assay type: cell-based, human; details: GIST-T1, GIST882 and GIST48; compared with dovitinib
Experimental: Protein lysates were prepared from cell monalayers using RIPA buffer (Cell Signaling Technology Catalog #9806) according to the procedure described by the manufacturer. Antibod-ies to detect phospho-KIT (Catalog #3073S), total KIT (Catalog #3308), phospho-AKT S473 (Catalog #4058), total AKT (Catalog #9272), phospho-ERK (Catalog #9101), total ERK (Catalog #9107) and phospho-FRS2 (Catalog #3864) were purchased from Cell Signaling Technology. Antibody to GAPDH (Catalog # MAB374) was purchased from Millipore and anti-FRS2(H-91) (Catalog #sc-8318) from Santa Cruz. Bound antibody was detected using the LI-COR Odyssey Infrared Imaging System.

GIST = details: cited from earlier work
[1] = Imatinib combined with Dovitinib, 72 hrs
[2] = absence of added FGF2, single agent
[3] = presence of added FGF2, single agent

Source text for GIST882 cells: as §1, §2

SMILES | Combination Index for 70% inhibition of GIST cell proliferation (GIST430 cells) | Synergy Score for inhibition of GIST cell proliferation (GIST430 cells) | Combination Index for 70% inhibition of GIST cell proliferation (GIST882 cells; [1]) | Synergy Score for inhibition of GIST cell proliferation (GIST882 cells; [1]) | growth inhibition (GIST882 cells; [2]) | growth inhibition (GIST882 cells; [3]) | Combination Index for 70% inhibition of GIST cell proliferation (GIST-T1 cells; [1]) | Synergy Score for inhibition of GIST cell proliferation (GIST-T1 cells; [1]) | growth inhibition (GIST-T1 cells; [2]) | growth inhibition (GIST-T1 cells; [3]) | growth inhibition (GIST-T1 cells; presence of added FGF2, single agent, listed as Dovtinib) | KIT inhibition (Western blot) (KIT) | progression-free survival (PFS) (GIST; 800 mg/day compared to 400 mg/day, advanced GIST harboring KIT exon 9 mutations) | RFS and overall survival (GIST; adjuvant 400 mg once daily, 36 months vs 12 months (SSGXVIII/AIO)) | recurrence-free survival (RFS) (GIST; adjuvant 400 mg/day for 12 months vs placebo, after complete resection (ACOSOGZ9001)) | GI50 shift in the presence of added FGF2 (GIST882 cells; with vs without added FGF2) | growth inhibition (GIST-T1 cells; absence of added FGF2, single agent, listed as nilotinib) | GI50 shift in the presence of added FGF2 (GIST-T1 cells; with vs without added FGF2)
CN1CCN(c2ccc3nc(-c4c(N)c5c(F)cccc5[nH]c4=O)[nH]c3c2)CC1 [Dovitinib, 4-amino-5-fluoro-3-[6-(4-methylpiperazin-1-yl)-1H-benzimidazol-2-yl]quinolin-2(1H)-one] | 0.624 | 0.635 | 0.965 | 0.321 | effective | restores maximum growth inhibition; also recorded: maximum inhibition was restored to levels comparable to the absence of FGF2 | 0.835 | 0.422 | effective | restores maximum growth inhibition; also recorded: maximum inhibition was restored to levels comparable to the absence of FGF2 | same level of maximum inhibition in the presence or absence of added FGF2 |  |  |  |  |  |  | 
Cc1ccc(NC(=O)c2ccc(CN3CCN(C)CC3)cc2)cc1Nc1nccc(-c2cccnc2)n1 [Imatinib, 4-(4-methylpiperazin-1-ylmethyl)-N-[4-methyl-3-(4-(pyridin-3-yl)pyrimidin-2-ylamino)phenyl]-benzamide] |  |  |  |  | efficacious | less sensitive |  |  | efficacious | less sensitive |  | more potent KIT inhibitor than dovitinib | significantly improves | superior to 12 months | significantly prolonged RFS |  |  | 
Cc1cn(-c2cc(NC(=O)c3ccc(C)c(Nc4nccc(-c5cccnc5)n4)c3)cc(C(F)(F)F)c2)cn1 [Nilotinib, 4-methyl-3-[[4-(3-pyridinyl)-2-pyrimidinyl]amino]-N-[5-(4-methyl-1H-imidazol-1-yl)-3-(trifluoromethyl)phenyl]benzamide] |  |  |  |  | sensitive to KIT inhibition | less sensitive |  |  | inhibits growth of GIST-T1 cells | less sensitive; also recorded: significantly decreased |  |  |  |  |  | greater than 10 fold | sensitive to KIT inhibition | greater than 10 fold
